PMC9232501, “Results of the phase I CCTG IND.231 trial of CX-5461 in patients with advanced solid tumors enriched for DNA-repair deficiencies” (Nature Communications, 2022)
Where “and” joins values, the source holds several entries; their conditions need not be identical. Equal values may be shown once.

System: HCT116 cells
Assay: HCT116 cytotoxicity (WST-1 assay) with and without UVA radiation
Type: cell-based, Human
Conditions: for potentiation of UVA-induced cytotoxicity: UV 5 mJ/cm^2 and 125 mJ/cm^2; for WST-1 raw signal (Figure 5d) / WST-1 raw signal (Figure 5e) / WST-1 raw signal (Figure 5b): replicates
Method: Fig. 5 Comparison of G4 ligand photosensitization. […] Vertical axis, fractional survival, horizontal axis log10 drug concentration (M) (f) Representative images of CPD immunofluorescent staining under UV and drug treatment conditions for U2OS cells, quantified from biological duplicates in (g) (h) Scale bar = 100um. U2OS cells were treated with drug or vehicle control, then immediately irradiated with UVA 125 mJ/cm^2; and fixed 1 h later for immunofluorescence staining with CPD antibody. g Distribution of mean intensity of CPD level per cell (total n = in labels), with two biological repeats per condition. Vertical axis, mean CPD intensity per cell, horizontal axis, conditions (h) WT or KO XPA HAP1 cells assayed for cytotoxicity. Vertical axis, fractional survival (WST-1 assay). The horizontal axis, log10 drug concentration (M). Error bars = standard deviation of the mean. Three biological repeats per condition.
Human epidermal keratinocytes (HEKa) cells were sourced from Thermo Fisher Scientific, and were grown in EpiLife™ Medium with HKGS. HAP WT and XPA knockout cell lines (Horizon Discovery) were cultured in IMDM, 10% FCS. Human HCT116 cells, U2OS cells (ATCC) were grown in McCoy’s 5 A medium with 10% FBS and L-glutamine. All cell lines are mycoplasma free and have been authenticated by STR or SNP profiling. CX-5461 was provided by Senhwa Biosciences, Inc. PDS is from Sigma-Aldrich, BRACO-19 from Alfa Chemistry, PhENDC3 is from Sigma-Aldrich, γ -H2AX antibody from Abcam (1:1000 for IF) and CPD antibody (1:1500) from Cosmo Bio Ltd. (Catalog number: CAC-NM-DAD-001). The WST-1 assay was performed as previously described, γ H2AX foci staining was performed as previously described. Immunofluorescence staining of CPD was performed according to the protocol from the manufacturer (Cosmo Bio Ltd).

CN(C)c1ccc(Nc2c3ccc(NC(=O)CCN4CCCC4)cc3nc3cc(NC(=O)CCN4CCCC4)ccc23)cc1 [BRACO-19]
potentiation of UVA-induced cytotoxicity: not | WST-1 raw signal (Figure 5d) (conc 1.31e-6, 5mJ/cm2 UV): 2.4666 and 1.6857 | WST-1 raw signal (Figure 5d) (conc 1.31e-6, 125mJ/cm2 UV): 1.7146 and 2.5235 | WST-1 raw signal (Figure 5d) (conc 1.31e-6, no UV): 1.0028 and 1.1127 and 1.1944 | WST-1 raw signal (Figure 5d) (conc 2.63e-6, 5mJ/cm2 UV): 1.5923 and 2.1232 | WST-1 raw signal (Figure 5d) (conc 2.63e-6, 125mJ/cm2 UV): 1.7241 and 1.9009 | WST-1 raw signal (Figure 5d) (conc 2.63e-6, no UV): 1.0332 and 1.1578 and 1.2506 | WST-1 raw signal (Figure 5d) (conc 5.25e-6, 5mJ/cm2 UV): 2.5376 and 1.7122 | WST-1 raw signal (Figure 5d) (conc 5.25e-6, 125mJ/cm2 UV): 1.8158 and 1.6795 | WST-1 raw signal (Figure 5d) (conc 5.25e-6, no UV): 0.8877 and 1.1208 and 1.1731 | WST-1 raw signal (Figure 5d) (conc 1.05e-5, 5mJ/cm2 UV): 2.0499 and 1.7849 | WST-1 raw signal (Figure 5d) (conc 1.05e-5, 125mJ/cm2 UV): 1.734 and 1.5629 | WST-1 raw signal (Figure 5d) (conc 1.05e-5, no UV): 0.9118 and 1.1353 and 1.1139 | WST-1 raw signal (Figure 5d) (conc 2.1e-5, 5mJ/cm2 UV): 2.2151 and 1.3748 | WST-1 raw signal (Figure 5d) (conc 2.1e-5, 125mJ/cm2 UV): 1.3993 and 1.3857 | WST-1 raw signal (Figure 5d) (conc 2.1e-5, no UV): 0.9051 and 1.0979 and 1.0693 | WST-1 raw signal (Figure 5d) (conc 4.2e-5, 5mJ/cm2 UV): 1.7663 and 1.2587 | WST-1 raw signal (Figure 5d) (conc 4.2e-5, 125mJ/cm2 UV): 1.2502 and 1.0049 | WST-1 raw signal (Figure 5d) (conc 4.2e-5, no UV): 0.8968 and 1.0934 and 1.1351 | WST-1 raw signal (Figure 5d) (conc 8.4e-5, 5mJ/cm2 UV): 0.4969 and 0.3888 | WST-1 raw signal (Figure 5d) (conc 8.4e-5, 125mJ/cm2 UV): 0.4246 and 0.5991 | WST-1 raw signal (Figure 5d) (conc 8.4e-5, no UV): 0.3873 and 0.5407 and 0.5015 | WST-1 raw signal (Figure 5d) (conc 1.64E-07, 5mJ/cm2 UV): 2.3685 and 1.9812 | WST-1 raw signal (Figure 5d) (conc 1.64E-07, 125mJ/cm2 UV): 1.617 and 1.4273 | WST-1 raw signal (Figure 5d) (conc 1.64E-07, no UV): 1.0063 and 1.0872 and 1.153 | WST-1 raw signal (Figure 5d) (conc 3.28E-07, 5mJ/cm2 UV): 1.3974 and 1.689 | WST-1 raw signal (Figure 5d) (conc 3.28E-07, 125mJ/cm2 UV): 1.2981 and 1.6967 | WST-1 raw signal (Figure 5d) (conc 3.28E-07, no UV): 0.8955 and 1.1379 and 1.1636 | WST-1 raw signal (Figure 5d) (conc 6.56E-07, 5mJ/cm2 UV): 2.2078 and 2.2342 | WST-1 raw signal (Figure 5d) (conc 6.56E-07, 125mJ/cm2 UV): 1.8184 and 2.0816 | WST-1 raw signal (Figure 5d) (conc 6.56E-07, no UV): 1.0072 and 1.1785 and 1.064

C[n+]1ccc(-c2c3nc(c(-c4cc[n+](C)cc4)c4ccc([nH]4)c(-c4cc[n+](C)cc4)c4nc(c(-c5cc[n+](C)cc5)c5ccc2[nH]5)C=C4)C=C3)cc1 [TMPYP4]
potentiation of UVA-induced cytotoxicity: not

C[n+]1cc(NC(=O)c2ccc3ccc4ccc(C(=O)Nc5cc6ccccc6[n+](C)c5)nc4c3n2)cc2ccccc21 [PhenDC3]
potentiation of UVA-induced cytotoxicity: not | WST-1 raw signal (Figure 5e) (conc 1.47e-6, 5mJ/cm2 UV): 2.5247 and 1.9665 and 1.5331 | WST-1 raw signal (Figure 5e) (conc 1.47e-6, 125mJ/cm2 UV): 2.2675 and 1.9844 and 1.1454 | WST-1 raw signal (Figure 5e) (conc 1.47e-6, no UV): 1.3654 and 1.4935 and 1.7286 | WST-1 raw signal (Figure 5e) (conc 2.94e-6, 5mJ/cm2 UV): 2.08 and 2.2029 and 1.6368 | WST-1 raw signal (Figure 5e) (conc 2.94e-6, 125mJ/cm2 UV): 2.4823 and 2.523 and 1.7852 | WST-1 raw signal (Figure 5e) (conc 2.94e-6, no UV): 1.5405 and 2.117 and 2.002 | WST-1 raw signal (Figure 5e) (conc 5.88e-6, 5mJ/cm2 UV): 2.4037 and 2.2391 and 1.6885 | WST-1 raw signal (Figure 5e) (conc 5.88e-6, 125mJ/cm2 UV): 2.7023 and 2.4336 and 1.5283 | WST-1 raw signal (Figure 5e) (conc 5.88e-6, no UV): 1.7 and 1.9567 and 2.1724 | WST-1 raw signal (Figure 5e) (conc 1.18e-5, 5mJ/cm2 UV): 2.1812 and 1.9738 and 1.7421 | WST-1 raw signal (Figure 5e) (conc 1.18e-5, 125mJ/cm2 UV): 2.7227 and 2.5018 and 2.3037 | WST-1 raw signal (Figure 5e) (conc 1.18e-5, no UV): 1.7648 and 1.8678 and 1.9824 | WST-1 raw signal (Figure 5e) (conc 2.35e-5, 5mJ/cm2 UV): 0.565 and 0.559 and 0.471 | WST-1 raw signal (Figure 5e) (conc 2.35e-5, 125mJ/cm2 UV): 0.7287 and 0.5914 and 0.574 | WST-1 raw signal (Figure 5e) (conc 2.35e-5, no UV): 0.8347 and 0.741 and 0.6679 | WST-1 raw signal (Figure 5e) (conc 4.7e-5, 5mJ/cm2 UV): 0.2348 and 0.2033 and 0.2076 | WST-1 raw signal (Figure 5e) (conc 4.7e-5, 125mJ/cm2 UV): 0.1706 and 0.1911 and 0.2089 | WST-1 raw signal (Figure 5e) (conc 4.7e-5, no UV): 0.2669 and 0.2647 and 0.2402 | WST-1 raw signal (Figure 5e) (conc 9.4e-5, 5mJ/cm2 UV): 0.1394 and 0.1367 and 0.1266 | WST-1 raw signal (Figure 5e) (conc 9.4e-5, 125mJ/cm2 UV): 0.1442 and 0.1281 and 0.1307 | WST-1 raw signal (Figure 5e) (conc 9.4e-5, no UV): 0.1612 and 0.1272 and 0.1365 | WST-1 raw signal (Figure 5e) (conc 1.84E-07, 5mJ/cm2 UV): 1.7037 and 1.2125 and 1.5201 | WST-1 raw signal (Figure 5e) (conc 1.84E-07, 125mJ/cm2 UV): 1.8011 and 1.8559 and 1.4258 | WST-1 raw signal (Figure 5e) (conc 1.84E-07, no UV): 1.321 and 1.2585 and 1.2601 | WST-1 raw signal (Figure 5e) (conc 3.67E-07, 5mJ/cm2 UV): 1.8869 and 1.5993 and 1.6043 | WST-1 raw signal (Figure 5e) (conc 3.67E-07, 125mJ/cm2 UV): 2.4917 and 1.8093 and 1.3054 | WST-1 raw signal (Figure 5e) (conc 3.67E-07, no UV): 1.2806 and 1.3851 and 1.3161 | WST-1 raw signal (Figure 5e) (conc 7.34E-07, 5mJ/cm2 UV): 1.9796 and 1.8361 and 1.8217 | WST-1 raw signal (Figure 5e) (conc 7.34E-07, 125mJ/cm2 UV): 2.3975 and 1.9653 and 1.3571 | WST-1 raw signal (Figure 5e) (conc 7.34E-07, no UV): 1.5573 and 1.2554 and 1.5011

CN1CCC[C@H]1CCNC(=O)c1cn2c3c(c(N4CCC(c5cnccn5)C4)c(F)cc3c1=O)Oc1cc3ccccc3cc1-2 (stereo partly shown) [CX-3543, quarfloxin]
potentiation of UVA-induced cytotoxicity: Strong potentiation | WST-1 raw signal (Figure 5b) (conc 1.00E-07, 5mJ/cm2 UV): 0.1176 and 0.1409 and 0.1492 | WST-1 raw signal (Figure 5b) (conc 1.00E-07, 125mJ/cm2 UV): 0.1326 and 0.1388 and 0.1325 | WST-1 raw signal (Figure 5b) (conc 1.00E-07, no UV): 0.3065 and 0.2985 and 0.3333 | WST-1 raw signal (Figure 5b) (conc 1.25E-08, 5mJ/cm2 UV): 0.2437 and 0.3248 and 0.2269 | WST-1 raw signal (Figure 5b) (conc 1.25E-08, 125mJ/cm2 UV): 0.1256 and 0.1309 and 0.1293 | WST-1 raw signal (Figure 5b) (conc 1.25E-08, no UV): 0.9466 and 1.0534 and 1.1298 | WST-1 raw signal (Figure 5b) (conc 1.56E-09, 5mJ/cm2 UV): 0.8994 and 0.9603 and 1.0971 | WST-1 raw signal (Figure 5b) (conc 1.56E-09, 125mJ/cm2 UV): 0.4201 and 0.4656 and 0.3751 | WST-1 raw signal (Figure 5b) (conc 1.56E-09, no UV): 1.1359 and 1.1204 and 1.1484 | WST-1 raw signal (Figure 5b) (conc 2.00E-07, 5mJ/cm2 UV): 0.1365 and 0.1282 and 0.1322 | WST-1 raw signal (Figure 5b) (conc 2.00E-07, 125mJ/cm2 UV): 0.1395 and 0.1322 and 0.1311 | WST-1 raw signal (Figure 5b) (conc 2.00E-07, no UV): 0.2081 and 0.2189 and 0.1938 | WST-1 raw signal (Figure 5b) (conc 2.50E-08, 5mJ/cm2 UV): 0.2095 and 0.1617 and 0.1535 | WST-1 raw signal (Figure 5b) (conc 2.50E-08, 125mJ/cm2 UV): 0.1433 and 0.1378 and 0.1358 | WST-1 raw signal (Figure 5b) (conc 2.50E-08, no UV): 0.8495 and 0.8987 and 0.779 | WST-1 raw signal (Figure 5b) (conc 3.13E-09, 5mJ/cm2 UV): 0.6485 and 0.7419 and 0.9883 | WST-1 raw signal (Figure 5b) (conc 3.13E-09, 125mJ/cm2 UV): 0.2369 and 0.2535 and 0.2676 | WST-1 raw signal (Figure 5b) (conc 3.13E-09, no UV): 1.0174 and 1.1372 and 1.1113 | WST-1 raw signal (Figure 5b) (conc 3.91E-10, 5mJ/cm2 UV): 1.0118 and 0.9721 and 1.5038 | WST-1 raw signal (Figure 5b) (conc 3.91E-10, 125mJ/cm2 UV): 0.8661 and 1.1363 and 0.97 | WST-1 raw signal (Figure 5b) (conc 3.91E-10, no UV): 1.0197 and 1.049 and 1.1065 | WST-1 raw signal (Figure 5b) (conc 5.00E-08, 5mJ/cm2 UV): 0.1533 and 0.1449 and 0.1376 | WST-1 raw signal (Figure 5b) (conc 5.00E-08, 125mJ/cm2 UV): 0.1545 and 0.1405 and 0.1347 | WST-1 raw signal (Figure 5b) (conc 5.00E-08, no UV): 0.5561 and 0.5613 and 0.5776 | WST-1 raw signal (Figure 5b) (conc 6.25E-09, 5mJ/cm2 UV): 0.5204 and 0.5393 and 0.4087 | WST-1 raw signal (Figure 5b) (conc 6.25E-09, 125mJ/cm2 UV): 0.1582 and 0.1598 and 0.1609 | WST-1 raw signal (Figure 5b) (conc 6.25E-09, no UV): 1.0374 and 1.1818 and 1.0522 | WST-1 raw signal (Figure 5b) (conc 7.81E-10, 5mJ/cm2 UV): 0.7587 and 1.1105 and 1.4362 | WST-1 raw signal (Figure 5b) (conc 7.81E-10, 125mJ/cm2 UV): 0.5029 and 0.7057 and 0.876 | WST-1 raw signal (Figure 5b) (conc 7.81E-10, no UV): 1.0762 and 1.1392 and 1.1311
